Measured values published in patent US8815879B2, “Substituted 4-(selenophen-2(or-3)-ylamino)pyrimidine compounds and methods of use thereof” (Kasina Laila Innova Pharmaceuticals Private Limited, priority 2010, dated 2014).
pIC50: −log10 of the molar value. Structures can show the parent of a compound that is named as a salt. Where two headings read alike, the source gives them in different places.

Experiments:
[1] = test system: human lung carcinoma A549 cells; assay: MTT based cell proliferation assay, A549; conditions: for pIC50 / inhibition at 10 µg/mL: Homo sapiens, A549, 72 h; for pIC50: read-out: Cell Proliferation Inhibition in A549 (Lung carcinoma), IC50; for inhibition at 10 µg/mL: read-out: Cell Proliferation Inhibition in A549 (Lung carcinoma), % at highest screening dose
Method: (§1) MTT [3-(4,5-dimethylthiazol-2-yl)-2,5-diphenyltetrazolium bromide] incorporation based cell proliferation assay was performed using standard procedure. […] The assay was carried out according to the instructions provided by the vendor. […] Vehicle control culture wells received only a maximum of 0.5% DMSO. Thereafter, 0.5 mg/ml of MTT reagent was added to each well and the microplate was incubated further for 4 h at 37° C. in presence of 5% CO2. Finally, the cells were solubilized by adding solubilizing solution and allowed to incubate at 37° C. overnight. After complete solubilization of the formazan crystals the absorbance was read at 540 nm in a microplate reader (BioRad, USA).
(§2) The evaluation of cell proliferation inhibitory activities of the compounds was done in two phases—(1) Screening, and (2) half-maximal inhibitory concentration (IC50) determination. In the screening phase, the cells were treated with three different concentrations e.g. 1, 5 and 10 μg/ml.

[2] = test system: human colorectal carcinoma HT29 cells; assay: MTT based cell proliferation assay, HT29; conditions: for pIC50: read-out: Cell Proliferation Inhibition in HT29 (Colon carcinoma), IC50; for inhibition at 10 µg/mL: read-out: Cell Proliferation Inhibition in HT29 (Colon carcinoma), % at highest screening dose
Method: as §1, §2

[3] = test system: human prostate DU145 cells; assay: MTT based cell proliferation assay, DU145; conditions: for pIC50: read-out: Cell Proliferation Inhibition in DU145 (Prostate carcinoma), IC50; for inhibition at 10 µg/mL: read-out: Cell Proliferation Inhibition in DU145 (Prostate carcinoma), % at highest screening dose
Method: as §1, §2

## COc1cc2c(Nc3cc(C(C)(C)C)[se]c3C(N)=O)ncnc2cc1OCCCN1CCOCC1 [Compound 5, 3-(7-(3-morpholinopropoxy)-6-methoxyquinazolin-4-ylamino)-5-tert-butylselenophene-2-carboxamide]
[1]
  pIC50: 5.34
[1]; ratio of IC50 values
  potency in vitro compared to gefitinib (Iressa), A549: approximately four times
[2]; Homo sapiens, HT-29, 72 h
  pIC50: 5.39
[2]; ratio of IC50 values
  potency in vitro compared to gefitinib (Iressa), HT29: several times better potency
[3]; Homo sapiens, DU-145, 72 h
  pIC50: 5.41
[3]; ratio of IC50 values
  potency in vitro compared to gefitinib (Iressa), DU145: several times better potency

## CC(C)(C)c1cc(Nc2ncnc3ccc(N)cc23)c(C(N)=O)[se]1 [Compound 8, 3-(6-aminoquinazolin-4-ylamino)-5-tert-butylselenophene-2-carboxamide]
[1]
  inhibition at 10 µg/mL: 7.6%
[2]; Homo sapiens, HT-29, 72 h
  inhibition at 10 µg/mL: 81.9%
[3]; Homo sapiens, DU-145, 72 h
  inhibition at 10 µg/mL: 15.7%

## COc1cc2ncnc(N(C)c3cc(C(C)(C)C)[se]c3C(N)=O)c2cc1OCCCN1CCOCC1 (as salt: HCl) [Compound 22, 3-(N-(6-(3-morpholinopropoxy)-7-methoxyquinazolin-4-yl)-N-methylamino)-5-tert-butylselenophene-2-carboxamide]
other
  melting point: 254 to 256 °C

## CC(C)(C)c1cc(Nc2ncnc3ccc(NC(=O)CCl)cc23)c(C(N)=O)[se]1 [Compound 9, 3-(6-(2-chloroacetamido)quinazolin-4-ylamino)-5-tert-butylselenophene-2-carboxamide]
[1]
  inhibition at 10 µg/mL: 0.19%
[2]; Homo sapiens, HT-29, 72 h
  pIC50: 5.03
[3]; Homo sapiens, DU-145, 72 h
  pIC50: 5.07

## CC(C)(C)c1cc(Nc2ncnc3cc(C(C)(C)C)[se]c23)c(C(N)=O)[se]1 [Compound 18, 3-(6-tert-butylselenopheno[3,2-d]pyrimidin-4-ylamino)-5-tert-butylselenophene-2-carboxamide]
[1]
  inhibition at 10 µg/mL: 2.18%
[2]; Homo sapiens, HT-29, 72 h
  inhibition at 10 µg/mL: 36.4%
[3]; Homo sapiens, DU-145, 72 h
  inhibition at 10 µg/mL: 7.87%

## CCc1c(C)sc2ncnc(Nc3cc(C(C)(C)C)[se]c3C(N)=O)c12 [Compound 13, 3-(5-ethyl-6-methylthiopheno[2,3-d]pyrimidin-4-ylamino)-5-tert-butylselenophene-2-carboxamide]
[1]
  inhibition at 10 µg/mL: 5.68%
[2]; Homo sapiens, HT-29, 72 h
  inhibition at 10 µg/mL: 30.2%
[3]; Homo sapiens, DU-145, 72 h
  inhibition at 10 µg/mL: 8.49%

## COc1cc2ncnc(Nc3cc(C(C)(C)C)[se]c3C(N)=O)c2cc1OCCCN1CCOCC1 [Compound 3, 3-(6-(3-morpholinopropoxy)-7-methoxyquinazolin-4-ylamino)-5-tert-butylselenophene-2-carboxamide]
[1]
  pIC50: 5.17
[2]; Homo sapiens, HT-29, 72 h
  pIC50: 5.29
[3]; Homo sapiens, DU-145, 72 h
  pIC50: 5.13

## COc1cc2nc(C)nc(Nc3cc(C(C)(C)C)[se]c3C(N)=O)c2cc1OCCCN1CCOCC1 [Compound 26, 3-(6-(3-morpholinopropoxy)-7-methoxy-2-methylquinazolin-4-ylamino)-5-tert-butylselenophene-2-carboxamide]
[1]
  pIC50: 4.93
[2]; Homo sapiens, HT-29, 72 h
  pIC50: 5.37
[3]; Homo sapiens, DU-145, 72 h
  pIC50: 5.17

## COCCOc1cc2ncnc(Nc3cc(C(C)(C)C)[se]c3C(N)=O)c2cc1OCCOC [Compound 6, 3-(6,7-bis(2-methoxyethoxy)quinazolin-4-ylamino)-5-tert-butylselenophene-2-carboxamide]
[1]
  inhibition at 10 µg/mL: 5.09%
[2]; Homo sapiens, HT-29, 72 h
  inhibition at 10 µg/mL: 86.4%
[3]; Homo sapiens, DU-145, 72 h
  inhibition at 10 µg/mL: 39.7%

## CCc1c(C)[se]c2ncnc(Nc3cc(C(C)(C)C)[se]c3C(N)=O)c12 [Compound 19, 3-(5-ethyl-6-methylselenopheno[2,3-d]pyrimidin-4-ylamino)-5-tert-butylselenophene-2-carboxamide]
[1]
  inhibition at 10 µg/mL: 7.86%
[2]; Homo sapiens, HT-29, 72 h
  inhibition at 10 µg/mL: 43.9%
[3]; Homo sapiens, DU-145, 72 h
  inhibition at 10 µg/mL: 6.68%

## COc1cc2nc(C)nc(Nc3cc(C(C)(C)C)[se]c3C(N)=O)c2cc1OC [Compound 24, 3-(6,7-dimethoxy-2-methylquinazolin-4-ylamino)-5-tert-butylselenophene-2-carboxamide]
[1]
  inhibition at 10 µg/mL: 15.1%
[2]; Homo sapiens, HT-29, 72 h
  pIC50: 4.98
[3]; Homo sapiens, DU-145, 72 h
  inhibition at 10 µg/mL: 87.7%

## COC(=O)c1cc(Nc2nc(C)nc3cc(OC)c(OC)cc23)c(C)[se]1 [Compound 25, methyl 4-(6,7-dimethoxy-2-methylquinazolin-4-ylamino)-5-methylselenophene-2-carboxylate]
[1]
  inhibition at 10 µg/mL: 2.95%
[2]; Homo sapiens, HT-29, 72 h
  inhibition at 10 µg/mL: 11.8%
[3]; Homo sapiens, DU-145, 72 h
  inhibition at 10 µg/mL: 2.59%

## COc1cc2c(Nc3cc(C(C)(C)C)[se]c3C(N)=O)ncnc2c(OC)c1OC [Compound 2, 3-(6,7,8-trimethoxyquinazolin-4-ylamino)-5-tert-butylselenophene-2-carboxamide]
[1]
  pIC50: 4.51
[2]; Homo sapiens, HT-29, 72 h
  pIC50: 4.71
[3]; Homo sapiens, DU-145, 72 h
  pIC50: 5.22

## COc1cc2ncnc(Nc3cc(-c4ccccc4)[se]c3C(N)=O)c2cc1OCCCN1CCOCC1 [Compound 7, 3-(6-(3-morpholinopropoxy)-7-methoxyquinazolin-4-ylamino)-5-phenyl-selenophene-2-carboxamide]
[1]
  pIC50: 5.22
[2]; Homo sapiens, HT-29, 72 h
  inhibition at 10 µg/mL: 85.8%
[3]; Homo sapiens, DU-145, 72 h
  pIC50: 5.23

## COc1cc2ncnc(Nc3cc(C(C)(C)C)[se]c3[N+](=O)[O-])c2cc1OCCCN1CCOCC1 [Compound 4, [5-(tert-butyl)-2-nitroselenophen-3-yl][7-methoxy-6-(3-morpholino-propoxy)quinazolin-4-yl]amine]
[1]
  inhibition at 10 µg/mL: 10.4%
[2]; Homo sapiens, HT-29, 72 h
  pIC50: 4.71
[3]; Homo sapiens, DU-145, 72 h
  inhibition at 10 µg/mL: 9.85%

## COc1cc2ncnc(N(C)c3cc(C(C)(C)C)[se]c3C(N)=O)c2cc1OCCCN1CCOCC1 [Compound 22, 3-(N-(6-(3-morpholinopropoxy)-7-methoxyquinazolin-4-yl)-N-methylamino)-5-tert-butylselenophene-2-carboxamide]
[1]
  inhibition at 10 µg/mL: 3.93%
[2]; Homo sapiens, HT-29, 72 h
  inhibition at 10 µg/mL: 34.3%
[3]; Homo sapiens, DU-145, 72 h
  inhibition at 10 µg/mL: 14.7%

## CSc1nc2ncnc(Nc3cc(C(C)(C)C)[se]c3C(N)=O)c2s1 [Compound 20, 3-(2-(methylthio)thiazolo[4,5-d]pyrimidin-7-ylamino)-5-tert-butylseleno-phene-2-carboxamide]
[1]; at 10 μg/ml (highest dose tested in screening), micromolar equivalent printed in each cell, three days
  Cell Proliferation Inhibition in A549 (Lung carcinoma), % at highest screening dose: 1.28% at 23.42 μM
[2]; MTT, three days incubation
  pIC50: 5.02
[3]; MTT, three days incubation
  pIC50: 4.75

## COC(=O)c1cc(Nc2ncnc3cc(OC)c(OCCCN4CCOCC4)cc23)c(C)[se]1 [Compound 10, methyl 4-(6-(3-morpholinopropoxy)-7-methoxyquinazolin-4-ylamino)-5-methylselenophene-2-carboxylate]
[1]
  inhibition at 10 µg/mL: 10.3%
[2]; Homo sapiens, HT-29, 72 h
  inhibition at 10 µg/mL: 6.11%
[3]; Homo sapiens, DU-145, 72 h
  inhibition at 10 µg/mL: 21.4%

## COc1cc2ncnc(Nc3cc(C(N)=O)[se]c3C)c2cc1OCCCN1CCOCC1 [Compound 11, 4-(6-(3-morpholinopropoxy)-7-methoxyquinazolin-4-ylamino)-5-methylselenophene-2-carboxamide]
[1]
  inhibition at 10 µg/mL: 16%
[2]; Homo sapiens, HT-29, 72 h
  inhibition at 10 µg/mL: 7.41%
[3]; Homo sapiens, DU-145, 72 h
  inhibition at 10 µg/mL: 5.15%

## CC(C)(C)c1cc(Nc2ncnc3ncccc23)c(C(N)=O)[se]1 [Compound 12, 5-tert-butyl-3-(pyridino[2,3-d]pyrimidin-4-ylamino)selenophene-2-carboxamide]
[1]
  inhibition at 10 µg/mL: 7%
[2]; Homo sapiens, HT-29, 72 h
  inhibition at 10 µg/mL: 6.75%
[3]; Homo sapiens, DU-145, 72 h
  inhibition at 10 µg/mL: 9.18%

## COc1cc2ncnc(N(CCCl)c3cc(C(C)(C)C)[se]c3C(N)=O)c2cc1OCCCN1CCOCC1 [Compound 23, 3-(N-(6-(3-morpholinopropoxy)-7-methoxyquinazolin-4-yl)-N-(2-chloroethyl)amino)-5-tert-butylselenophene-2-carboxamide]
[1]
  inhibition at 10 µg/mL: 3.28%
[2]; Homo sapiens, HT-29, 72 h
  inhibition at 10 µg/mL: 40.7%
[3]; Homo sapiens, DU-145, 72 h
  inhibition at 10 µg/mL: 22.4%
